Reference: PMC7832312, “Enhancing the Physiochemical Properties of Puerarin via L-Proline Co-Crystallization: Synthesis, Characterization, and Dissolution Studies of Two Phases of Pharmaceutical Co-Crystals” (International Journal of Molecular Sciences, 2021)
Values after ≈ are worked out from the molar mass of the structure shown.

Assays:
[1] = Dissolution rate measurement (UV, 250 mL medium, 150 RPM, 2 h, 37 °C); type: physicochemical; conditions: for Time-dependent dissolution rate: 37 °C
Method: The solubility and dissolution studies of pure PUE, I, and II were measured using a Thermo Scientific Evolution 300 UV spectrometer in deionized water at pH 7.0, gastrointestinal tract at pH 1.2, and phosphate buffer at pH 6.8 solution at 37 °C. The concentration was calculated utilizing a standard curve, which was made by measuring the absorbance of different concentrations at their λmax. A superfluity sum of the sample was added to 10 mL of H2O medium, pH 1.2 and pH 6.8 phosphate, respectively.
(§1) The oversaturated solution was stirred at 500 RPM by magnetic stirring at 37 °C for 24 h and the suspension was filtered through Whatman’s […] syringe channel, diluted sufficiently and the absorbance was measured at their λmax. For the dissolution rate, the sample was specifically poured into 250 mL pH 7.0 water, pH 1.2 gastrointestinal tract, and pH 6.8 phosphates medium and then stirred at 150 RPM for 2h at 37 °C. Each solution was measured by the absorbance at λmax. At customary interims, the solution was replenished with 3 mL of the respective blank solution to maintain an overall steady volume.

HEK-293 cell lines = assay: Cytotoxicity evaluation by MTT assay, HEK-293; type: cell-based, human; conditions: HEK-293, culturing 24 h
Method: (§2) CT-26 and HEK-293 cell line was purchased from American Type Culture Collection (Manassas, VA, USA). The cell lines were cultured in RPMI 1640 (for CT-26) or DMEM (for HEK-293) containing 10% fetal bovine serum (FBS, Zhejiang Tianhang Biotechnology Co. Ltd., Hangzhou, China) and 1% penicillin/streptomycin (Zhejiang Tianhang Biotechnology Co. Ltd., Hangzhou, China). Cells grew as a monolayer and were detached upon confluence using trypsin (0.5% w/v in PBS, Zhejiang Tianhang Biotechnology Co. Ltd., Hangzhou, China). The cells were harvested from the cell culture medium by incubating in trypsin solution for 3 min. The cells were centrifuged, and the supernatant discarded. A 3 mL portion of serum-supplemented cell culture medium was added to neutralize any residual trypsin. The cells were re-suspended in serum-supplemented RPMI 1640 (for CT-26) or DMEM (for HEK-293) at a concentration of 5 × 10^4 cells per 1 mL. Cells were cultured at 37 °C and 5% CO2 for MTT studies.
(§3) The CT-26 or HEK-293 cells were seeded at a density of 1 × 10^4 cells per well in 100 µL of complete RPMI 1640 (CT-26) or DMEM (for HEK-293), and cultured for 16 h for attachment. The culture medium was then replaced by a serum-free medium containing various concentrations of pristine PUE, I, and II. […] After incubating the cells at 37 °C for 4 h, the MTT solution was removed and DMSO (100 μL) added to dissolve the formazan crystals formed, and the microplates were agitated for 5 min at a medium rate before the spectrophotometric measurement at a wavelength of 570 nm on a microplate reader. […] The relative cell viability (%) related to control cells was calculated by the formula below: V%=[A]experimental−[A]blank/[A]control−[A]blank×100% where V% is the percentage of cell viability, [A]experimental is the absorbance of the wells culturing the treated cells, [A]blank is the absorbance of the blank, and [A]control is the absorbance of the wells culturing untreated cells.

CT-26 cancer cell lines = assay: Cytotoxicity evaluation by MTT assay, CT-26; type: cell-based, murine; conditions: CT-26, culturing 24 h
Method: as §2, §3

[2] = Solubility measurement (UV, oversaturated solution stirred 24 h at 37 °C); type: physicochemical; conditions: thermodynamic from solid, average of three replicates
Method: The concentration was calculated utilizing a standard curve, which was made by measuring the absorbance of different concentrations at their λmax. A superfluity sum of the sample was added to 10 mL of H2O medium, pH 1.2 and pH 6.8 phosphate, respectively.
as §1

[3] = cited from earlier work

CCO.O.O.O=C(O)[C@@H]1CCCN1.O=c1c(-c2ccc(O)cc2)coc2c([C@@H]3O[C@H](CO)[C@@H](O)[C@H](O)[C@H]3O)c(O)ccc12.O=c1c(-c2ccc(O)cc2)coc2c([C@@H]3O[C@H](CO)[C@@H](O)[C@H](O)[C@H]3O)c(O)ccc12 [II, [PUE]2[PRO]∙EtOH∙(H2O)2]
Time-dependent dissolution rate ([1]; Water, 5 min): 0.131 mg/mL
Time-dependent dissolution rate ([1]; Water, 10 min): 0.210 mg/mL
Time-dependent dissolution rate ([1]; Water, 15 min): 0.281 mg/mL
Time-dependent dissolution rate ([1]; Water, 20 min): 0.457 mg/mL
Time-dependent dissolution rate ([1]; Water, 25 min): 0.567 mg/mL
Time-dependent dissolution rate ([1]; Water, 30 min): 0.701 mg/mL
Time-dependent dissolution rate ([1]; Water, 40 min): 1.450 mg/mL
Time-dependent dissolution rate ([1]; Water, 50 min): 2.110 mg/mL
Time-dependent dissolution rate ([1]; Water, 60 min): 2.490 mg/mL
Time-dependent dissolution rate ([1]; Water, 80 min): 2.840 mg/mL
Time-dependent dissolution rate ([1]; Water, 100 min): 3.203 mg/mL
Time-dependent dissolution rate ([1]; Water, 120 min): 3.410 mg/mL
Time-dependent dissolution rate ([1]; pH 1.2, 5 min): 0.171 mg/mL
Time-dependent dissolution rate ([1]; pH 1.2, 10 min): 0.240 mg/mL
Time-dependent dissolution rate ([1]; pH 1.2, 15 min): 0.337 mg/mL
Time-dependent dissolution rate ([1]; pH 1.2, 20 min): 0.417 mg/mL
Time-dependent dissolution rate ([1]; pH 1.2, 25 min): 0.479 mg/mL
Time-dependent dissolution rate ([1]; pH 1.2, 30 min): 0.534 mg/mL
Time-dependent dissolution rate ([1]; pH 1.2, 40 min): 1.005 mg/mL
Time-dependent dissolution rate ([1]; pH 1.2, 50 min): 1.342 mg/mL
Time-dependent dissolution rate ([1]; pH 1.2, 60 min): 1.489 mg/mL
Time-dependent dissolution rate ([1]; pH 1.2, 80 min): 1.683 mg/mL
Time-dependent dissolution rate ([1]; pH 1.2, 100 min): 1.923 mg/mL
Time-dependent dissolution rate ([1]; pH 1.2, 120 min): 2.005 mg/mL
dissolution rate compared with the other forms ([1]; pH 1.2, pH 6.8, H2O pH 7.0): higher dissolution rate than both I and PUE
Time-dependent dissolution rate ([1]; pH 6.8, 5 min): 0.121 mg/mL
Time-dependent dissolution rate ([1]; pH 6.8, 10 min): 0.212 mg/mL
Time-dependent dissolution rate ([1]; pH 6.8, 15 min): 0.352 mg/mL
Time-dependent dissolution rate ([1]; pH 6.8, 20 min): 0.446 mg/mL
Time-dependent dissolution rate ([1]; pH 6.8, 25 min): 0.537 mg/mL
Time-dependent dissolution rate ([1]; pH 6.8, 30 min): 0.861 mg/mL
Time-dependent dissolution rate ([1]; pH 6.8, 40 min): 1.059 mg/mL
Time-dependent dissolution rate ([1]; pH 6.8, 50 min): 1.503 mg/mL
Time-dependent dissolution rate ([1]; pH 6.8, 60 min): 2.210 mg/mL
Time-dependent dissolution rate ([1]; pH 6.8, 80 min): 2.723 mg/mL
Time-dependent dissolution rate ([1]; pH 6.8, 100 min): 3.138 mg/mL
Time-dependent dissolution rate ([1]; pH 6.8, 120 min): 3.370 mg/mL
cytotoxicity (MTT cell viability) (HEK-293 cell lines): negligible cytotoxicity
cytotoxicity (MTT cell viability) (CT-26 cancer cell lines): negligible cytotoxicity

O=c1c(-c2ccc(O)cc2)coc2c([C@@H]3O[C@H](CO)[C@@H](O)[C@H](O)[C@H]3O)c(O)ccc12 [PUE, Puerarin]
Time-dependent dissolution rate ([1]; Water, 5 min): 0.062 mg/mL
Time-dependent dissolution rate ([1]; Water, 10 min): 0.109 mg/mL
Time-dependent dissolution rate ([1]; Water, 15 min): 0.190 mg/mL
Time-dependent dissolution rate ([1]; Water, 20 min): 0.250 mg/mL
Time-dependent dissolution rate ([1]; Water, 25 min): 0.294 mg/mL
Time-dependent dissolution rate ([1]; Water, 30 min): 0.506 mg/mL
Time-dependent dissolution rate ([1]; Water, 40 min): 0.611 mg/mL
Time-dependent dissolution rate ([1]; Water, 50 min): 0.692 mg/mL
Time-dependent dissolution rate ([1]; Water, 60 min): 0.821 mg/mL
Time-dependent dissolution rate ([1]; Water, 80 min): 0.896 mg/mL
Time-dependent dissolution rate ([1]; Water, 100 min): 0.935 mg/mL
Time-dependent dissolution rate ([1]; Water, 120 min): 1.031 mg/mL
Time-dependent dissolution rate ([1]; pH 1.2, 5 min): 0.008 mg/mL
Time-dependent dissolution rate ([1]; pH 1.2, 10 min): 0.019 mg/mL
Time-dependent dissolution rate ([1]; pH 1.2, 15 min): 0.023 mg/mL
Time-dependent dissolution rate ([1]; pH 1.2, 20 min): 0.030 mg/mL
Time-dependent dissolution rate ([1]; pH 1.2, 25 min): 0.035 mg/mL
Time-dependent dissolution rate ([1]; pH 1.2, 30 min): 0.043 mg/mL
Time-dependent dissolution rate ([1]; pH 1.2, 40 min): 0.163 mg/mL
Time-dependent dissolution rate ([1]; pH 1.2, 50 min): 0.354 mg/mL
Time-dependent dissolution rate ([1]; pH 1.2, 60 min): 0.394 mg/mL
Time-dependent dissolution rate ([1]; pH 1.2, 80 min): 0.435 mg/mL
Time-dependent dissolution rate ([1]; pH 1.2, 100 min): 0.568 mg/mL
Time-dependent dissolution rate ([1]; pH 1.2, 120 min): 0.685 mg/mL
Time-dependent dissolution rate ([1]; pH 6.8, 5 min): 0.078 mg/mL
Time-dependent dissolution rate ([1]; pH 6.8, 10 min): 0.110 mg/mL
Time-dependent dissolution rate ([1]; pH 6.8, 15 min): 0.168 mg/mL
Time-dependent dissolution rate ([1]; pH 6.8, 20 min): 0.244 mg/mL
Time-dependent dissolution rate ([1]; pH 6.8, 25 min): 0.274 mg/mL
Time-dependent dissolution rate ([1]; pH 6.8, 30 min): 0.347 mg/mL
Time-dependent dissolution rate ([1]; pH 6.8, 40 min): 0.415 mg/mL
Time-dependent dissolution rate ([1]; pH 6.8, 50 min): 0.444 mg/mL
Time-dependent dissolution rate ([1]; pH 6.8, 60 min): 0.504 mg/mL
Time-dependent dissolution rate ([1]; pH 6.8, 80 min): 0.560 mg/mL
Time-dependent dissolution rate ([1]; pH 6.8, 100 min): 0.641 mg/mL
Time-dependent dissolution rate ([1]; pH 6.8, 120 min): 0.785 mg/mL
solubility at 24 h ([2]; aqueous buffer, phosphate buffer at pH 6.8, 37 °C): 2490 µg/mL (≈ 5.97 mM)
solubility at 24 h ([2]; deionized water, Distilled Water (pH 7.0), 37 °C): 2530 µg/mL (≈ 6.07 mM)
solubility at 24 h ([2]; gastrointestinal tract medium pH 1.2, simulated gastric fluid, gastrointestinal tract at pH 1.2, 37 °C): 1510 µg/mL (≈ 3.63 mM)
elimination half-life [3]: short
oral bioavailability [3]: about 7%
cytotoxicity (MTT cell viability) (HEK-293 cell lines): negligible cytotoxicity
cytotoxicity (MTT cell viability) (CT-26 cancer cell lines): negligible cytotoxicity
